Experiments:
CD33 = CD33 (Homo sapiens, UniProt P20138); conditions: CD33 on the surface of CD33-positive cells; cited from earlier work
[1] = system: EOL-1 cells, a human AML cell line; test: In vivo efficacy in EOL-1 subcutaneous xenograft model; conditions: EOL-1 sc xenograft; IMGN779 5 μg/kg day 10; cytarabine 75 mg/kg days 10-14; text: long-term CRs on day 90
Protocol: The mice were weighed twice a week and were monitored for clinical signs throughout the duration of the study. Animals were euthanized when hind leg paralysis was present, body weight decreased by >20% of pre-treatment weight, tumor ulceration occurred, or when any signs of distress were visible. Tumor volumes were measured one to two times weekly in three dimensions using a caliper. […] Tumor Growth Inhibition (T/C Value) was also assessed using the following formula: T/C (%)=(Median tumor volume of the treated/Median tumor volume of the control)×100%. Tumor volume was determined simultaneously for the treated (T) and the vehicle control (C) groups when tumor volume of the vehicle control reached a predetermined size (Bissery et al., Cancer Res. 51: 4845-52 (1991). The daily median tumor volume of each treated group was determined, including tumor-free mice (0 mm^3). According to NCI standards, a T/C≤42% is the minimum level of anti-tumor activity. A T/C<10% is considered a high anti-tumor activity level.
Female athymic nude mice were each inoculated with 1×10^7 EOL-1 cells, a human AML cell line, in 100 μl serum free medium subcutaneously in the right flank. […]

[2] = system: MV4-11 cells, a human AML cell line; test: In vivo efficacy in MV4-11 disseminated xenograft model; set-up: species or system mice; conditions: cytarabine alone 75 mg/kg QD×5 days 24-28
Protocol: (§1) The measured end-point was survival. […] Spontaneous deaths were recorded when they were discovered. For disseminated models, Tumor Growth Delay is calculated as T−C, where T is the median survival time (in days) of a treated group and C is the median survival time (in days) of the vehicle control group. The Percent Increased Life Span (% ILS) for disseminated models is calculated using the following formula: % ILS=(T−C)/C×100%.
The cyclophosphamide (Sigma, C0768, Lot # MKBX1822V) was dissolved in 0.9% NaCl and was administered intraperitoneally to the mice on day −3 and day −2 prior to MV4-11 cell inoculation.
Following cyclophosphamide treatment as described above, the mice were each injected intravenously in the lateral tail vein with 3×10^6 MV4-11 cells, a human AML cell line, in 100 μl of serum-free medium on day 0 in the study.
Cytarabine was given once a day (QD) at a dose of 75 mg/kg for five consecutive days (×5) and always administered on the same fixed set of days in the study time line: days 24, 25, 26, 27 and 28.
Lastly, Group K received QW×3 dosing of 1 μg/kg by DGN462 (0.0556 mg/kg by antibody) of a non-targeted control conjugate, Ab-DGN462, on a day 21, 28 and 35 dosing schedule (“Day 21”, with FcR blocking).

[3] = system: Molm-13 cells, a human AML cell line; test: In vivo efficacy in Molm-13 disseminated xenograft model; set-up: species or system mice; conditions: cytarabine alone 75 mg/kg QD×5 days 7-11
Protocol: as §1
The cyclophosphamide (Sigma, C0768, Lot # MKBX1822V) was dissolved in 0.9% NaCl and was administered intraperitoneally to the mice on day −2 prior to Molm-13 cell inoculation on day 0.
Following cyclophosphamide treatment as described above, the mice were each injected intravenously in the lateral tail vein with 2×10^5 Molm-13 cells, a human AML cell line, in 100 μl of serum-free medium on day 0 in the study.
Cytarabine, in contrast, was given once a day (QD) at a dose of 75 mg/kg for five consecutive days (×5) and always on a fixed set of days in the study time line: Days 7, 8, 9, 10 and 11.
The results are represented in Table 5 (below) and in FIG. 3.

MV4-11 = test: In vitro CD33 expression post-treatment with cytarabine (flow cytometry, PE anti-CD33); type: cell-based, human; conditions: cytarabine 2,500 nM, 15, 24, 39, 48 hours post-treatment
Protocol: (§2) CD33 expression was assessed post-treatment with cytarabine. In these experiments, two AML cell lines with cell surface display of CD33 and cytarabine sensitivity were used: MV4-11 and MOLM-13. The potency-relative doses were chosen for each treatment, relative to IC50s generated from 96-hour cytotoxicity assays. […] Time points at 15 hours, 24 hours, 39 hours, and 48 hours post-treatment with cytarabine were chosen for cell surface CD33 assessment. Cells were stained with, then washed of excess, PE-conjugated anti-CD33 mAb. Flow cytometric analyses of PE MFI were run on a FACSCanto II flow cytometer. PE-MFIs at each timepoint were normalized to PE-MFIs of untreated control samples and normalized PE-MFIs were considered to represent relative fold-changes in surface CD33 binding sites.

MOLM-13 = test: as above; type: cell-based, human; conditions: cytarabine 400 nM, 15, 24, 39, 48 hours post-treatment
Protocol: as §2

Chain of CD33 (P20138 18-364): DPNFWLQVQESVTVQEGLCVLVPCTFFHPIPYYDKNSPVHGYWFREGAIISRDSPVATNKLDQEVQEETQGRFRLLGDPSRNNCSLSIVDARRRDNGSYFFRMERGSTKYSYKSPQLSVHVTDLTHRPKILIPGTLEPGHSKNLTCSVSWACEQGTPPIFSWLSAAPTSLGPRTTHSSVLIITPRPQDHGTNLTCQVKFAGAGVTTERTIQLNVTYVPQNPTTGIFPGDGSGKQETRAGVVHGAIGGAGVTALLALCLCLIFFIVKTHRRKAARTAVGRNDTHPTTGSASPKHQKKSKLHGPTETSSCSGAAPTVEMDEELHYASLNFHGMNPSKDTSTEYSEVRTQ

Compound	binding affinity to CD33 (CD33)	Tumor Free Survivors (Day 90) [1]	Median Survival Time ([2]; NOD SCID mice) [days]	% Increased Life Span (ILS) [2] [%]	Result [2]	Tumor Growth Delay (T-C, Days) [2] [days]	Median Survival Time ([3]; NOD SCID mice) [days]	% Increased Life Span (ILS) [3] [%]	Result [3]	Tumor Growth Delay (T-C, Days) [3] [days]	CD33 transcription and cell surface expression (MV4-11)	CD33 transcription and cell surface expression (MOLM-13)
My9-6: murine anti-CD33 antibody from which huMy9-6 is derived	high affinity											
Nc1ccn([C@@H]2O[C@H](CO)[C@@H](O)[C@@H]2O)c(=O)n1 [Cytarabine, cytosine arabinoside]		0/6	46	0	Inactive	0	20	0	Inactive	0	dose- and time-dependent increase	dose- and time-dependent increase
